In PubChem BioAssay AID540258 (Broad Institute, 2011):
Activity calls are given as the source filed them.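 The calls were made as follows: active = fitted curve reaching 40% activation at or below the top valid dose tested; inconclusive = flat curve at 30 to 70% activation, or poor fit; inactive = the rest.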

Each compound was assayed on SK-MEL-5 TRPM1 promoter luciferase reporter, 24 h (assay: MITF activators via TRPM1 promoter reporter, dose response, SK-MEL-5 cells, luciferase, cherry-pick samples (AID 540258);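 also: potency for activators that raise TRPM1 promoter luciferase signal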).
Compound `N#C/C(C(=O)N1CCCCC1)=C1\Nc2ccccc2S1` has an AC40 of 5.02 µM.
In the case of `Clc1ccccc1/C=C/c1nc(-c2cccnc2)no1`, the AC40 is reported as 1.2 µM.
In the case of `N#Cc1ccc(NC(=O)c2cccs2)nc1`, the AC40 is reported as 16.8 µM.
In the case of `O=Cc1ccc(OCc2ccc3ccccc3c2)cc1`, the AC40 is reported as 1.4 µM.
`Cc1nn2c(-c3ccccc3)ccnc2c1-c1ccccc1` was tested, and the AC40 was 4.34 µM.
`Nc1nonc1-n1nnc(C(=O)N/N=C/c2ccc(OCc3ccccc3F)cc2)c1CN1CCCCC1` showed an AC40 of 17.1 µM.
In the case of `c1ccc(-c2noc(COc3ccc4c(c3)OCO4)n2)cc1`, the AC40 is reported as 2.25 µM.
`NNC(=O)c1ccc2nc(-c3ccc(Br)cc3)cn2c1` was tested, and the AC40 was 11.3 µM.
With `CCc1ccc(C(=O)NC2CCCCC2)s1` the AC40 was 2.95 µM.
`O=C(O)c1ccc(/C=C/c2ccc3cccc(O)c3n2)cc1` was tested, and the AC40 was 0.876 µM.
Compound `CCc1ccc(NC(=O)c2cc(-c3cccs3)on2)cc1` has an AC40 of 12.3 µM.
For `CCc1cccc(NC(=O)c2sc3nc4n(c(=O)c3c2C)CCC4)c1`, the AC40 was 4.55 µM.
`Cc1ccc(C(=O)NCCc2ccc(F)cc2)s1` gave an AC40 of 0.245 µM.
`COc1cccc(Nc2nc(-c3ccc(O)cc3)cs2)c1` gave an AC40 of 3.18 µM.
In the case of `COc1ccc(-c2nnn(Cc3ccccc3F)n2)cc1`, the AC40 is reported as 2.14 µM.
Compound `O=C(NC1CCCCCC1)c1c(O)c2ccccc2[nH]c1=O` has an AC40 of 1.1 µM.
`O=C(Nc1ccc(F)cc1Cl)c1ccc2c(=O)n3c(nc2c1)CCC3` gave an AC40 of 3.5 µM.
In the case of `Nc1nc(CSc2ccccn2)nc(Nc2ccccc2)n1`, the AC40 is reported as 1.31 µM.
`CCCCN1CCc2c([nH]c3c(C)cccc23)C1=O` was tested, and the AC40 was > 35 µM (inactive).
`CN(CC(=O)Nc1ccccc1Br)C(=O)c1cc2c(s1)CCCCC2` gave an AC40 of 3.4 µM.
`CC1CCN(C(=O)Nc2ccc3nsnc3c2)CC1` showed an AC40 of 13.7 µM.
Compound `Cc1ccc(NC(=O)Nc2ccc3c(c2)N(C)C(=O)CS3)nc1` has an AC40 of 6.65 µM.
Compound `CCCCCc1ccc(-c2ccc(OC)cc2)nc1` has an AC40 of 1.38 µM.
`Nc1ccc(N=Nc2ccccc2)c(N)n1` gave an AC40 of 14.7 µM.
`Clc1cnc(N/N=C/c2cccs2)c(Cl)c1` was tested, and the AC40 was 3.62 µM.
With `O=C(O)c1ccc(N/N=C/c2cccc(C(F)(F)F)c2)cc1` the AC40 was 0.488 µM.
With `CCS(=O)(=O)Nc1ccc(C(=O)NCCSc2ccccc2)cc1` the AC40 was 34.6 µM.
Work on `COc1ccc(NC(=S)c2ccccc2)cc1` yielded an AC40 of 3.97 µM.
`Cc1cc(C)c2nc(NCc3ccccc3O)sc2c1` was tested, and the AC40 was 19 µM.
For `Clc1ccc(-c2cc(CSc3ccccc3)on2)cc1`, the AC40 was 1.45 µM.
`COc1ccc(C(=O)/C=C/Nc2cccc(C)n2)cc1OC` showed an AC40 of 0.977 µM.
Work on `Cc1ccccc1Nc1nc(N)nc(COC(=O)c2ccccc2)n1` yielded an AC40 of 7.87 µM.
In the case of `Cc1ccc(-c2csc(C(C#N)=C3CCCC3)n2)cc1`, the AC40 is reported as 2.84 µM.
With `CCCn1ncc2c(Nc3ccc(C)c(C)c3)ncnc21` the AC40 was 4.16 µM.
`C/C(=N\Nc1ccc(C(=O)O)cc1)c1ccc2c(c1)Nc1ccccc1S2` gave an AC40 of 12.8 µM.
Work on `COc1ccccc1NC(=O)Nc1nc2ccc(S(N)(=O)=O)cc2s1` yielded an AC40 of 1.57 µM.
With `O=C(NCCc1c[nH]c2ccccc12)c1cc(Cl)c2c(c1)OCO2` the AC40 was 17 µM.
`Cn1cccc1C(=O)C(=O)Nc1ccc(F)c(F)c1` showed an AC40 of 0.855 µM.
For `C=CCc1c(C)nc(-c2ccccc2)nc1N/N=C/c1ccncc1`, the AC40 was 7.06 µM.
In the case of `O=C(Nc1ccccn1)c1ccccc1`, the AC40 is reported as 14.8 µM.
Compound `Nc1c(C(=O)C2CC2)sc2nc3c(cc12)CCC3` has an AC40 of 1.92 µM.
For `Cc1ccc(/C=N/Nc2ccc(Cl)nn2)cc1`, the AC40 was 1.93 µM.
`COc1ccccc1Nc1nc(C)cs1` showed an AC40 of 22.6 µM.
Compound `Cn1c(SCc2c(F)cccc2Cl)nnc1-c1cnccn1` has an AC40 of 6.16 µM.
Work on `c1ccc2cc(C3CCCCC3)ncc2c1` yielded an AC40 of 29.4 µM.
`CC1CCN(c2oc(-c3ccccc3Cl)nc2C#N)CC1` showed an AC40 of 10.9 µM.
Compound `Brc1ccccc1-n1nnc(-c2nccs2)n1` has an AC40 of 2.52 µM.
Work on `CC(=O)NCCC1CCCCN1C(=O)c1cc(COc2cc(C)ccc2C)on1` (stereo unspecified) yielded an AC40 of 3.2 µM.
`CCCSc1ccc(C(=O)Nc2ccc(F)cc2F)cn1` showed an AC40 of 27.2 µM.
`Cc1ccc2cc(NC(=O)c3ccccc3C)ccc2n1` was tested, and the AC40 was 1.69 µM.
Compound `C1=C(c2cc3ccccc3cn2)CCCC1` has an AC40 of 1.08 µM.
For `O=C(N=Nc1c(O)n(Cc2ccccc2)c2ccccc12)c1ccc(O)cc1`, the AC40 was 0.86 µM.
With `CCCNC(=O)Nc1nc2ccccc2s1` the AC40 was 0.513 µM.
For `CCc1ccc(C(=O)N/N=C(\C)c2cccnc2)s1`, the AC40 was 8.9 µM.
Compound `Oc1cccc(-c2nc3ccc4ccccc4c3c3c2CCC3)c1` has an AC40 of 3.02 µM.
For `CN(C(=O)c1cc(-c2ccccc2)on1)C1CCCCC1`, the AC40 was 1.12 µM.
`COc1cccc(NC(=O)Nc2ccc3c(c2)nnn3C)c1` was tested, and the AC40 was 4.88 µM.
Work on `COc1cc2c(C)nc3c(cnn3-c3ccccc3)c2cc1OC` yielded an AC40 of 2.87 µM.
Work on `Cc1ccc(Nc2ncnc3ccccc23)cc1` yielded an AC40 of 2.23 µM.
In the case of `O=C(NC1CCCCCC1)c1cc2c(=O)n3ccccc3nc2s1`, the AC40 is reported as 8.63 µM.
`O=C(c1cccs1)N1CCn2c1nc1ccccc12` showed an AC40 of 4.69 µM.
`COc1ccc(-c2cn3nc(C)c(C)nc3n2)cc1OC` showed an AC40 of 5.89 µM.
`O=C(c1nnc(-c2ccc(Cl)cc2)o1)C1CCCC1` was tested, and the AC40 was 10.3 µM.
`O=C(NCC1CC1)Nc1ccc(Cl)cc1` gave an AC40 of 12.9 µM.
For `CC(C)(C)C(=O)N1CCN(c2nc3ccccc3s2)CC1`, the AC40 was 1.86 µM.
For `N#Cc1c(-c2ccc(Cl)cc2)ccn2nc(C3CCCCC3)nc12`, the AC40 was 2.4 µM.
